Values of other authors in patent US20080076825A1, “Novel Crystalline Forms of Entacapone and Production Thereof” (priority 2003, published 2008).

How the values were obtained:
[1] = commercially available entacapone
Parkinson's disease = conditions: in combination with levodopa and a decarboxylase inhibitor; by lengthening the dosage interval and/or reducing the single dose

For `CCN(CC)C(=O)/C(C#N)=C/c1cc(O)c(O)c([N+](=O)[O-])c1` [entacapone, (E)-N,N-diethyl-2-cyano-3-(3,4-dihydroxy-5-nitrophenyl)acrylamide], the bioavailability [1] is listed as 35% and the “reduction of the amount of L-dopa to be administered” value (Parkinson's disease) is listed as 10-30%.
